Each structure is given as a SMILES string. Several values for one entry are separate records, joined by “and”; a condition that tells them apart may be missing. Equal entries are not always repeated. Where two headings read alike, the source gives them in different places.

Format in all cases: binding, Petunia hybrida
One test addresses recombinant PhnsLTP2. The test is described as follows: TNS displacement assay with recombinant PhnsLTP2. The note with it: PhnsLTP2 1 µM, TNS 3 µM; non-linear fitting to Michaelis-Menten equation; means ± S.E., n = 3; read-out: dissociation constant Kd (PhnsLTP2). The protocol: (§1) To directly test whether PhnsLTP3 can bind petunia VOCs, in vitro displacement assays were performed using the recombinant PhnsLTP3 protein and fluorescent 6-(p-toluidino)−2-naphthalenesulfonate (TNS) in the presence of petunia volatiles. […] TNS fluoresces strongly when bound to the hydrophobic regions of the protein, while it has weak fluorescence in an aqueous solution. […] Potential ligands of the protein will displace the bound TNS from the hydrophobic protein pocket into the aqueous environment leading to a decrease in the fluorescent signal, which was used to calculate the dissociation constant of the protein with ligand. […] To test whether PhnsLTP2 and PhnsLTP3 can bind other VOCs, we assayed the terpenoids: limonene, linalool, and nerolidol, as well as methyl jasmonate in TNS displacement assays. Both PhnsLTP2 and PhnsLTP3 were able to bind tested volatile compounds with Kds in the micromolar range (Supplementary Figs. 16 and 17).
(§2) The fluorescence-based-binding assays were performed largely according to previous publications[12],[52] with slight modifications. […] All mixtures were excited at 320 nm, and the fluorescence emission at 437 nm was recorded using a plate reader (SpectraMax iD3, Molecular Devices) at equilibrium after 5 min of incubation at 25 °C giving the background fluorescence Fmix0 and FTNS0 . The tested ligands dissolved in 2 µL DMSO were then added to the mixtures and TNS only to different final concentrations, and the fluorescence emissions were recorded at equilibrium after 5 min of incubation ( Fmixligand and FTNSligand ). To account for the change in the TNS fluorescence intensity upon adding the solvent DMSO, the background fluorescence of TNS ( FTNSsol ) as well as each PhnsLTP with TNS ( Fmixsol ) were measured. The ratios RTNS=FTNSsol/FTNS0 and Rmix=Fmixsol/Fmix0 were calculated to calibrate the fluorescence. Three measurements were taken for each concentration. The results were expressed as a percentage of fluorescence quenched Fmixligand/Rmix−FTNSligand/RTNS/Fmix0−FTNS0×100% . The corresponding dissociation constants kd were obtained by non-linear regression fitting of the binding kinetics to the Michaelis-Menten equation.
Supplementary Figure 16 | Binding kinetics of recombinant PhnsLTP2 with phenylpropanoids/benzenoids by petunia flowers, terpenoids and methyl jasmonate.
TNS displacement assays were performed at fixed concentrations of PhnsLTP2 (1 µM) and TNS (3 µM) and the fluorescence was measured before and after the tested compounds were added at various concentrations. The results are expressed as percentage of fluorescence quenched with respect to the concentration of added compound. The binding curves were obtained by non-linear fitting to the Michaelis-Menten equation (solid line in the graph) and the dissociation constants Kd [µM] were obtained. Phenylacetaldehyde, eugenol, and […]
corresponding binding curves. All data are means ±S.E. (n = 3 biological replicates).

A further test addresses recombinant PhnsLTP3. The test is described as follows: TNS displacement assay with recombinant PhnsLTP3. To be noted: for Kd / Percentage fluorescence quenched: PhnsLTP3 1 µM, TNS 3 µM; for Kd: means ± S.E., n = 3; for Percentage fluorescence quenched: three biological replicates (c2-c4); for Percentage fluorescence quenched (%): biological replicates 1-3, Supplementary Figure 16. The protocol:
as §1
Fig. 5 Binding kinetics of recombinant PhnsLTP3 with VOCs emitted by petunia flowers. TNS displacement assays were performed at fixed concentrations of PhnsLTP3 (1 µM) and TNS (3 µM) and the fluorescence was measured before and after the tested compounds were added at various concentrations. The results are expressed as percentage of fluorescence quenched with respect to the concentration of added compound. The binding curves were obtained by non-linear fitting to the Michaelis-Menten equation (solid line in the graph) and the dissociation constants Kd [µM] were obtained. […] All data are means ± S.E. (n = 3 biological replicates).
as §2
The binding curves of PhnsLTP3 with various VOC compounds were obtained by non-linear fitting to the one-binding-site (Eq. (1)) and two-binding-site (Eq. (2)) models. The equations assume that the ligand binds to multiple independent binding sites and that the binding to each site follows the law of mass action:1 %offluorescencequenched=Bmax×[TNS]/kd+[TNS] 2 %offluorescencequenched=Bmax1×[TNS]/kd1+[TNS]+Bmax2×[TNS]/kd2+[TNS] […]
PhnsL TP3 (1 µ M)and TNS (3 µ M)and the fluorescence was measured before and after the tested compounds were added at various concentrations. The results are expressed as percentage of fluorescence quenched with respect to the concentration of added compound.
The binding curves were obtained by non-linear fitting to the Michaelis-Menten equation (solid line in the graph) and the dissociation constants Kd [µ M]were obtained. All data are means ±S.E. (n = 3 biological replicates).
Supplementary Figure 25 | Analysis of number of binding sites of PhnsLTP3.
TNS displacement assay was performed at fixed concentrations of PhnsLTP3 (1 µM) and TNS (3 µM) and the fluorescence was measured before and after methyl […]

Another test concerns PhnsLTP2. Nature of the test: Activity of PhnsLTP2 with TNS (TNS fluorescence). To be noted: three biological replicates (c2-c4); listed as PhnsLTP2+TNS. On the procedure: (§3) To directly test whether PhnsLTP3 can bind petunia VOCs, in vitro displacement assays were performed using the recombinant PhnsLTP3 protein and fluorescent 6-(p-toluidino)−2-naphthalenesulfonate (TNS) in the presence of petunia volatiles. […] TNS fluoresces strongly when bound to the hydrophobic regions of the protein, while it has weak fluorescence in an aqueous solution. […] Potential ligands of the protein will displace the bound TNS from the hydrophobic protein pocket into the aqueous environment leading to a decrease in the fluorescent signal, which was used to calculate the dissociation constant of the protein with ligand. […]
(§4) The fluorescence-based-binding assays were performed largely according to previous publications[12],[52] with slight modifications. […] All mixtures were excited at 320 nm, and the fluorescence emission at 437 nm was recorded using a plate reader (SpectraMax iD3, Molecular Devices) at equilibrium after 5 min of incubation at 25 °C giving the background fluorescence Fmix0 and FTNS0 . The tested ligands dissolved in 2 µL DMSO were then added to the mixtures and TNS only to different final concentrations, and the fluorescence emissions were recorded at equilibrium after 5 min of incubation ( Fmixligand and FTNSligand ). […] The ratios RTNS=FTNSsol/FTNS0 and Rmix=Fmixsol/Fmix0 were calculated to calibrate the fluorescence. […]

In the next test the test system is PhnsLTP1. The test is described as follows: Activity of PhnsLTP1 with TNS (TNS fluorescence). On the procedure:
as §3, §4

The test system of a further test is PhnsLTP3. The test is described as follows: Activity of PhnsLTP3 with TNS (TNS fluorescence). To be noted: for TNS fluorescence with boiled PhnsLTP3: three biological replicates. The protocol:
as §1, §2
Supplementary Figure 15 | Protein purification and characterization of PhnsLTP1, PhnsLTP2, and PhnsLTP3 activity with TNS. a, SDS-PAGE analysis of PhnsLTP1 after affinity chromatography on Ni-NTA agarose (lane A) and subsequent cation exchange chromatography on HiTrapTM SP HP-Cytiva (lane B). 5.3 µg protein were loaded per each lane .b, SDS-PAGE analysis of 8.75 µg of purified PhnsLTP 1, PhnsLTP 2 , and PhnsLTP 3. […] P values were determined by one-way ANOVA with the Tukey’s multiple comparisons test relative to TNS background (black) and boiled PhnsLTP3 in the presence of 200 mM DTT (blue). […]

The mark [1] stands for this setting: non-linear fitting to Michaelis-Menten equation (one binding site), read-out: dissociation constant Kd (PhnsLTP3).

Regarding `COC(=O)c1ccccc1` [Methylbenzoate], the Kd on recombinant PhnsLTP2 came to 534 ± 302 µM; at recombinant PhnsLTP3 (setting [1]), 271 ± 91.1 µM; at recombinant PhnsLTP3 (two-binding-site fit, read-out: dissociation constant Kd1 (PhnsLTP3, two-binding-site model)) it was 521 ± 89.5 µM; at recombinant PhnsLTP3 (two-binding-site fit, read-out: dissociation constant Kd2 (PhnsLTP3, two-binding-site model)), 2 ± 1.9 µM. Besides, the Percentage fluorescence quenched was 6.48% and 6.57% (2×) in the test on recombinant PhnsLTP3 (VOC concentration 3 µM); 10.07% and 16.15% and 14.94% in the test with recombinant PhnsLTP3 (VOC concentration 30 µM); 37.30% and 35.09% and 38.77% with recombinant PhnsLTP3 (VOC concentration 300 µM); 74.64% and 66.75% and 71.33% in the test with recombinant PhnsLTP3 (VOC concentration 1500 µM); 78.82% and 71.40% and 74.18% in the test with recombinant PhnsLTP3 (VOC concentration 3000 µM). Further, the “Percentage fluorescence quenched (%)” value was 8.70% and 11.37% and 17.83% in the test with recombinant PhnsLTP3 (VOC concentration 3 µM); 3.75% and 8.76% and 8.44% in the test on recombinant PhnsLTP3 (VOC concentration 30 µM); 16.10% and 21.79% and 13.64% in the test on recombinant PhnsLTP3 (VOC concentration 300 µM); 40.72% and 46.43% and 46.19% with recombinant PhnsLTP3 (VOC concentration 1500 µM); 46.60% and 49.81% and 49.98% in the test on recombinant PhnsLTP3 (VOC concentration 3000 µM).

Consider `Cc1ccc(Nc2ccc3cc(S(=O)(=O)O)ccc3c2)cc1` [TNS, 6-(p-toluidino)−2-naphthalenesulfonate], for which the “TNS fluorescence with PhnsLTP2” value with PhnsLTP2 was 1288048 A.U. and 1292857 A.U. and 1304928 A.U. The “TNS-binding activity of PhnsLTP1 (in words)” value with PhnsLTP1 was “did not display TNS-binding activity”. Further, in the test with PhnsLTP1 (three biological replicates (c2-c4), listed as PhnsLTP1+TNS), the “TNS fluorescence with PhnsLTP1” value is 198735 A.U. and 195455 A.U. and 188087 A.U. Besides, the “TNS fluorescence with boiled PhnsLTP3” value in the test on PhnsLTP3 (boiled PhnsLTP3 in the presence of 200 mM DTT (negative control), listed as Boiled PhnsLTP3+TNS (200 mM DTT)) was 508777 A.U. and 481415 A.U. and 534530 A.U; with PhnsLTP3 (boiled PhnsLTP3 in the presence of 400 mM DTT (negative control), listed as Boiled PhnsLTP3+TNS (400 mM DTT)) it was 531842 A.U. and 534148 A.U. and 522476 A.U. Also, the “TNS fluorescence in the presence of PhnsLTP3 (in words)” value in the test on PhnsLTP3 (relative to buffer and denatured, dithiothreitol-reduced PhnsLTP3 controls) was “intense TNS fluorescence”. Besides, the “TNS fluorescence with PhnsLTP3” value in the test with PhnsLTP3 (three biological replicates (c2-c4), listed as PhnsLTP3+TNS) is 1399068 A.U. and 1386931 A.U. and 1338392 A.U.

`COc1cc(C=O)ccc1O` [Vanillin]: the Kd on recombinant PhnsLTP2 was 114 ± 12.9 µM; on recombinant PhnsLTP3 (setting [1]), 26.3 ± 10.4 µM. The Percentage fluorescence quenched was 5.78% and 5.07% and 1.21% with recombinant PhnsLTP3 (VOC concentration 3 µM); 6.62% and 14.22% and 7.63% in the test with recombinant PhnsLTP3 (VOC concentration 30 µM); 35.76% and 34.45% and 15.77% in the test with recombinant PhnsLTP3 (VOC concentration 300 µM); 17.05% and 24.17% and 26.21% with recombinant PhnsLTP3 (VOC concentration 1500 µM); 22.96% and 20.23% and 21.72% with recombinant PhnsLTP3 (VOC concentration 3000 µM).

These data come from PMC9852552, “Emission of floral volatiles is facilitated by cell-wall non-specific lipid transfer proteins” (Nature Communications, 2023).
